Patent US6541514B2, “Process for the manufacture of 117Sn diethylenetriaminepentaacetic acids” (Brookhaven Science Associates, LLC, priority 2001, dated 2003)
Read-outs that look alike come from different tables or passages of the source.

Assays:
[1] = in vivo; cited from earlier work
[2] = cited from earlier work; for relief of bone pain: humans
[3] = system: Chinese hamster V79 cells; assay: Radiotoxicity in cultured mammalian cells (colony survival); assay type: cell-based; conditions: 14 h labeling, 72 h at 10.5° C.
Method: The present study examines the radiotoxicity of composition of the invention when incorporated into cultured mammalian cells.
The cells were then resuspended in fresh culture medium and maintained at 10.5° C. on a rocker-roller for 72 h. Cells were then washed again, serially diluted, and seeded into culture dishes. After 1 week the colonies were stained and counted, the surviving fraction compared to unlabeled controls was determined.

[4] = cited from earlier work; for myelosuppression / bone marrow toxicity: in vivo

## O=[32P](O)(O)O [^32P orthophosphate]
[1]
  increase in uptake in bone around osseous metastases as compared to normal bone: 3- to 5 fold
[2]; patients
  duration of pain relief / response: two to four months
  time to pain relief / clinical benefit after administration: within five to fourteen days

## ^117mSn (Sn^4+) diethylenetriaminepentaacetic acid (DTPA) [^117mSn(Sn^4+)DTPA]
[3]
  cellular uptake required to achieve 37% survival: 0.95 mBq/cell
[1]
  bone uptake and retention compared with 32P orthophosphate, 153Sm-EDTMP, 186Re-HEDP and 89SrCl2: higher bone uptake and retention
[2]
  relief of bone pain: effective agent for palliation of pain caused by bone metastases
[2]; listed as 117mSn (Sn^4+) DTPA
  relief of bone pain: dose-dependent relief of bone pain
[4]
  myelosuppression / bone marrow toxicity: no substantial toxicity to marrow tissues
[4]; listed as 117mSn (Sn^4+) DTPA
  myelosuppression / bone marrow toxicity: None of the ^117mSn (Sn^4+) DTPA compositions used in WO 95/29706 exhibited bone marrow toxicity

## [89Sr+2].[Cl-].[Cl-] [^89Sr, ^89SrCl2]
[1]
  biological half-life in normal bone: 14 days
  biological half-life in osteoblastic metastases: exceeds 50 days
[2]; patients
  duration of pain relief / response: three to six months
  patients with bone pain / symptom relief: 60 to 80%
  time to pain relief / clinical benefit after administration: two to four weeks after injection
[4]; four weeks after therapy
  decrease in platelet count: 30%

## O=P([O-])(O)CN(CCN(CP(=O)([O-])O)CP(=O)(O)O)CP(=O)([O-])O.[153Sm+3] [^153Sm-EDTMP, ^153Sm ethylenediaminetetramethylenephosphonate (EDTMP) complex]
[2]; patients
  duration of pain relief / response: four to forty weeks
  time to pain relief / clinical benefit after administration: within two weeks
[4]
  myelosuppression / bone marrow toxicity: Reversible myelosuppression
